# Test results as given in patent publication US20050191348A1 (priority 2004, published 2005).
# Marks after values point to notes of the source that are not given here.
# Assays:
# MAPK = MAPK activation (phospho-p44/42 MAPK immunoblot) in PC12 cells; type: cell-based, rat
# Method: (viii) Extracellular signal-regulated kinase (ERK) activity. The kinase activity of the ERKs was measured using the MAPK assay kit (Cell Signaling Technology) according to the manufacturer's protocol. In brief, for kinase activity assays, PC12 cells were grown in 6-well plates (5×10^5 cells/well). Eighteen to twenty-four hours before experiments, the medium was replaced with DMEM with 0.5% FCS and treated as described in the figures. Experimental treatments were performed in 1 ml medium containing 0.5% FCS, with the vehicle or test drugs and/or inhibitors at 37° C., as described in the figures. After treatment, reactions were stopped by placing cells on ice and aspirating the medium. Cells were harvested in 50 mM Tris-HCl, pH 8.0, 150 mM NaCl, 5 mM EDTA, 1 mM DTT, 1% Triton X-100, and protease- and phosphatase-inhibitor cocktails. Protein concentration was determined by the Bradford method. As described previously (Yogev-Falach et al., 2002), each cell lysate, containing 30 μg protein, was separated on 4-12% SDS-polyacrylamide electrophoresis gels, immunoblotted, and identified using phospho-p44/42 MAPK (Thr202/Tyr204) antibody or p44/42 MAPK antibody. Data are representative of three to six independent experiments.
# To study the effect of rasagiline on MAPK activation, PC12 cells were treated for 0.5 h with increasing concentrations of rasagiline (0.1, 1 and 10 μM), and quantification of the phospho-MAPK blots were normalized using the total MAPK blots, or PC12 cells were preincubated for 15 min with vehicle alone, or with PD98059 (30 μM) or GF109203X (2.5 μM) and then incubated without or with rasagiline (10 μM) for 0.5 h. Aliquots of cell lysates were then subjected to immunoblot analysis and probed with anti-phospho-MAPK (top blots) and anti-MAPK (bottom blots).
# For the effect of propargylamine on MAPK activation, PC12 cells were treated for 0.5 h with increasing concentrations of propargylamine (0.1, 1 and 10 μM). Aliquots of cell lysates were then subjected to immunoblot analysis and probed with anti-phospho-MAPK and anti-MAP kinase. Quantification of the phospho-MAPK were normalized using the total MAPK blots.
# sAPPα = sAPPα release into medium of SH-SY5Y neuroblastoma cells; type: cell-based, human; settings: 3 h; for sAPPα secretion (fold/basal): 1 μM, SH-SY5Y conditioned media, mean ± SE of three experiments
# Method: For the experiments, cells were seeded (2×10^6) onto 100-mm plates (for SH-SY5Y cells) or T75 flasks (for PC12 cells) in culture medium supplemented with full serum for 48 h. The cells were replaced with fresh medium containing 0.5% FCS for an additional 24 h (subconfluent culture), and then the experiments were performed in fresh medium containing 0.5% FCS for the indicated time periods at 37° C. After incubation with various drugs, the conditioned media were collected, centrifuged at 3500 g (10 min, 4° C.) to remove cell debris, and the cleared supernatants were concentrated 10-fold by lyophilization.
# (vii) Determination of sAPP. Protein concentrations of cell lysates were assayed using Bradford reagent (Sigma Chemical). Equal amounts of volumes of conditioned medium, standardized to lysate protein, were subjected to […], using either the MAbs 22C11 or 6E10 in 50 mM Tris-HCl, pH 7.4, 150 mM NaCl, containing 0.05% Tween 20 and 1% BSA. Immunoreactivity was detected using anti-mouse IgG-conjugated with HRP and an enhanced chemiluminescence method (Amersham, Pharmacia Biotech, UK). Blots were developed for different times to span a linear range of response, and the relative intensity of immunoreactive bands on the exposed films was quantified by computer-assisted densitometry program (Quantity One, Bio-Rad, Hercules, Calif., USA).
# It was of interest to determine whether rasagiline and other propargylamine-containing drugs also regulate APP processing. For this purpose, SH-SY5Y neuroblastoma cells were incubated for 3 h without or with 1 μM of various drugs (TV3326 and its S-isomer TV3279, rasagiline and its S-isomer TVP1022, selegiline, aminoindan), and sAPPα was measured in the media as described in Materials and Methods.
# We further characterized, in detail, the effect of rasagiline on APP processing and the signaling pathways that are involved. Thus, SH-SY5Y neuroblastoma cells were incubated for 3 h without or with increasing concentrations of rasagiline (0.1, 1 and 10 μM), and sAPPα was measured in the media as described in Materials and Methods.
# For the sAPPα release, SH-SY5Y neuroblastoma cells or PC12 cells were incubated for 3 h without or with increasing concentrations of propargylamine (0.1, 1 and 10 μM), and sAPPα was measured in the media as described in Materials and Methods.
# [1] = test system: p-PKC (pan), PKCα and PKCε; test: PKC translocation to membrane fraction of PC12 cells; type: cell-based, rat; settings: PC12, 100 nM, 2 h
# Method: (v) PKC translocation. Cells were cultured to confluence and treated for 2 h with either no drug (control), phorbol 12-myristate-13-acetate (PMA) (positive control) or rasagiline. After washing, the cells were harvested, collected by centrifugation (5 min, 1500 rpm), and homogenized by sonication (12 s, 22μ) in homogenization buffer (20 mM Tris-HCl, pH 7.4, 0.32 M sucrose, 2 mM EDTA, 50 mM β-mercaptoethanol) containing a protease inhibitor cocktail (Sigma Aldrich, Sweden). Cytosolic and particulate fractions were separated by ultracentrifugation (30 min, 100,000 g, 4° C.). For the particulate fraction, proteins were extracted by a 45 min incubation on ice in homogenization buffer containing 0.5% Triton X-100. Samples were then sonicated for 1 min and equivalent amounts of protein (15 μg) separated by PAGE followed by blotting onto nitrocellulose paper. Western blotting was performed essentially as described above using antibodies against p-PKC (pan), PKCα and PKCε.
# PKC translocation to the membrane fraction upon activation and membrane localization is often used as a marker for PKC activation.
# [2] = test system: Bcl-2 family and PKC isoform mRNA; test: Gene expression by quantitative real-time RT-PCR in serum-free PC12 cells; type: cell-based, rat
# Method: (vi) Total RNA extraction. PC12 cells were cultured in DMEM containing 5% FCS and 10% horse serum until confluence. At the day of the experiment, the medium was replaced with fresh medium without serum and rasagiline or propargylamine at various concentrations were administered for 24 h. At the end of incubation, the medium was removed and isolation of total RNA was performed, using Tri Reagent™ Isolation reagent. Total RNA was treated with DNase-RNase free (Roche Diagnostics, Mannheim, Germany) for 30 min at 37° C. and subsequently extracted by a round of phenol:chlorophorm:isoamylalcohol (25:24:1), followed by one of chloroform. After precipitation with NaOAc (0.3 M) and ethyl alcohol, the RNA pellet was washed with 80% ethyl alcohol (12,000×g) for 10 min and resuspended in 50-100 μl of diethylpyrocarbonate (DEPC)-treated water and incubated for 5-10 min at 56° C. to facilitate resuspension.
# (vi) Reverse transcription (RT) and quantitative real-time RT-PCR. In order to confirm the results obtained with the customized cDNA expression micro-array, 2 μg of total RNA were denatured and reverse transcribed using random hexanucleotides (0.5 μg/μl). Secondary structures of the template and primer (total volume of 16 μl) were opened by incubation for 5 min at 70° C. and immediately cooled on ice. Reaction mix (9 μl) containing reaction buffer, dNTP (0.5 mm each), RNAasin™ RNAase inhibitor (Promega) (25U) and M-MLV reverse transcriptase (200U) was added and samples were incubated at 39° C. for 1 h. For every RNA preparation a negative control was run in parallel consisting of a direct amplification of the RNA sample, omitting the RT step. The samples were transferred to 92° C. for 10 min, in order to deactivate the enzyme, and then cooled to 4° C.
# Quantitative real-time PCR, using LightCycler and FastStart DNA Master SYBR Green I ready-to use PCR mix, was performed according to the manufacture's protocol (Roche Diagnostics, Mannheim, Germany). cDNA (40 ng) was amplified in 20 μl total volume. The sequences of the primers and the size of the products are described in Table 1. The results are analyzed on the provided program of the LightCycler. The relative expression level of a given mRNA was assessed by normalizing to the housekeeping gene 18S-rRNA and compared with control values.
# In this experiment, we examined whether Bcl-2 family proteins mediate the pro-survival effect of rasagiline, using serum-starved rat pheochromocytoma PC12 cell line as a model of neuronal apoptosis. PC12 cells were maintained in full-serum (control), or in serum-free (SF) media in the absence or presence of various concentrations of rasagiline (0.001, 0.1, 1 and 10 μM) for 3 h or 24 h, and gene expression was measured by quantitative real-time RT-PC. The real-time RT-PCR consists of RNA samples isolated from said PC-12 cells. Each gene expression was normalized to the housekeeping gene, 18S-rRNA, since this transcript was reported to be less susceptible to the influence by external factors.
# The effect of propargylamine on Bad and Bax mRNA levels was examined as described in Example 5 above.
# PC12 cells = settings: PC12, 10 μM, 24 h
compound,measurement,setting,value
"NC1CCc2ccccc21 (stereo not drawn) [Aminoindan, aminoindan]",MAPK phosphorylation,"MAPK; PC12, 0.1, 1 and 10 μM, 0.5 h",did not show such effects
same,sAPPα secretion (fold/basal),sAPPα,1.23 ± 0.32 fold/basal
same,sAPPα released into the medium,"sAPPα; SH-SY5Y, 0.1, 1 and 10 μM, versus untreated cells",did not show such effects
COc1cccc(-c2cc(=O)c3ccccc3o2)c1N [PD98059],effect on rasagiline-induced MAPK phosphorylation,"MAPK; PC12, pretreatment 30 μM, rasagiline 10 μM 0.5 h",blocked the rasagiline-induced increase of MAPK phosphorylation
"CCCCCCCCCCCCCC(=O)O[C@@H]1[C@@H](C)[C@@]2(O)[C@@H](C=C(CO)C[C@]3(O)C(=O)C(C)=C[C@@H]23)[C@@H]2C(C)(C)[C@]12OC(C)=O [PMA, phorbol 12-myristate-13-acetate]",translocation of PKCα,[1],157%
same,translocation of PKCε,[1],212%
same,translocation of p-PKC (pan),[1],214%
"C#CCN[C@@H]1CCc2ccccc21 [Rasagiline, N-propargyl-(1R)-aminoindan]",Bad mRNA reduction,"[2]; 1 μM, 3 h",1.35 fold vs. serum free treatment
same,Bcl-xL mRNA expression increase,"[2]; 10 μM, 24 h, compared to serum-free culture",about 2 fold
same,Bad mRNA reduction,"[2]; 0.01 and 0.1 μM, 24 h",~2.5 fold vs. serum free culture
same,Bcl-W mRNA expression,"[2]; 0.1, 1 and 10 μM, 24 h",135 % of serum-free culture
same,lowest dose giving MAPK activation,"MAPK; PC12, 0.5 h",0.1 µM
same,sAPPα secretion (fold/basal),sAPPα,2.97 ± 0.15^b fold/basal
same,increase in sAPPα secretion over the basal levels,"sAPPα; SH-SY5Y, 10 μM (maximal effect)",~3.0 fold
"C#CCN(C)[C@H](C)Cc1ccccc1 [Selegiline, R-(−)-N-methyl-N-(prop-2-ynyl)-2-aminophenylpropane]",sAPPα secretion (fold/basal),sAPPα,2.03 ± 0.21^c fold/basal
C#CCN[C@H]1CCc2ccc(OC(=O)N(C)CC)cc21 [TV3279],sAPPα secretion (fold/basal),sAPPα,2.76 ± 0.36^b fold/basal
"C#CCN[C@@H]1CCc2ccc(OC(=O)N(C)CC)cc21 [TV3326, (N-propargyl-(3R)aminoindan-5yl)-ethyl methyl carbamate]",sAPPα secretion (fold/basal),sAPPα,2.86 ± 0.35^b fold/basal
"Aβ1-42: amyloidogenic Aβ peptide, used as toxic insult",cell viability,PC12 cells,66 % of control
